Measured values taken from patent US10555987B2, “GHRH agonists for the treatment of ischemic disorders” (UNIVERSITY OF MIAMI, priority 2012, dated 2020).
Non-standard residues stand in square brackets, D forms with d. Residues, ends and D or L forms follow the SMILES beside them. *: point of attachment. Desaminotyrosyl = O=C(CCc1ccc(O)cc1)*; Agmatine = N=C(N)NCCCCN*; Nle = CCCC[C@H](N)C(=O)O; Orn = NCCC[C@H](N)C(=O)O; Abu = CC[C@H](N)C(=O)O

Columns and labels:
GH release = test: In vivo endocrine activity, GH release after subcutaneous administration (Table 9); details: rat; for GH releasing potency relative to JI-38 (=1): subcutaneous (s.c.) injection
Method: Subcutaneous Administration. Adult male rats were used and anesthetized with pentobarbital (6 mg/100 g, b.w.), by i.p. injection. […] Blood samples were taken from the jugular vein 5, 15 and/or 30 minutes after the injection. The blood samples were centrifuged, plasma was removed and the GH level was measured byELISA. The results are summarized in terms of potency in Table 9.

GHRH receptor [1] = target: T1, GHRH receptor (Homo sapiens, UniProt Q02643); test: GHRH receptor binding, competition with 125I-labeled JV-1-42, human pituitary membrane homogenates (Table 7); design: Normal human pituitaries were purchased from the National Hormone and Peptide Program; tissue National Hormone and Peptide Program (A.F. Parlow, Harbor-UCLA Medical Center, Torrance, Calif.); host or cells: normal human pituitary, membrane fraction
T1 sequence (Q02643 23-423): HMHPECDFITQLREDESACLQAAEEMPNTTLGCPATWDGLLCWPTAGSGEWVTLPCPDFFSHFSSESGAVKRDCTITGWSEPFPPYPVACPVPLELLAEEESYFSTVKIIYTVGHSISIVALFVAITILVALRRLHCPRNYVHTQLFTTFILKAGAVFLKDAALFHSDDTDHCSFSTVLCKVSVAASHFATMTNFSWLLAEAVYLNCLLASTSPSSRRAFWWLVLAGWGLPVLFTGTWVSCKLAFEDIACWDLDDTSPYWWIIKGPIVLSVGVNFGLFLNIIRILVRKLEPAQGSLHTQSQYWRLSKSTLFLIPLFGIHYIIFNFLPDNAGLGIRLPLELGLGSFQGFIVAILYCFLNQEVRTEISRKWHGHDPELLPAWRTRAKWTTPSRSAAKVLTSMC
Text: Normal human pituitaries were purchased from the National Hormone and Peptide Program (A.F. Parlow, Los Angeles, County Harbor-UCLA Medical Center, Torrance, Calif.).

GHRH receptor [2] = target: T1, GHRH receptor; test: GHRH receptor binding, competition with 125I-labeled JV-1-42, human pituitary membrane homogenates (Table 5); design: Normal human pituitaries were purchased from the National Hormone and Peptide Program; tissue National Hormone and Peptide Program (A.F. Parlow, Harbor-UCLA Medical Center, Torrance, Calif.); host or cells: normal human pituitary, membrane fraction
Method: Normal human pituitaries were purchased from the National Hormone and Peptide Program (A.F. Parlow, Los Angeles, County Harbor-UCLA Medical Center, Torrance, Calif.). Briefly, in competitive binding analysis, ^125I-labeled JV-1-42 ([…]) was displaced by GHRH agonists at 10^−6 to 10^−12 M.
The final binding affinities were expressed as IC50 values and were calculated by using the LIGAND PC computerized curve-fitting program of Munson and Rodbard as modified by McPherson.

[3] = test system: myocardial infarction (Fisher-344 rats); test: Hemodynamic analysis (pressure-volume loops), body and heart weight after MI, compared to JI-38 (Example 15, Table 16); assay type: in vivo, rat; design: key to ESP (End-Systolic Pressure) / EDP (End-Diastolic Pressure) / ESV (End-Systolic Volume) / PRSW (Preload Recruitable Stroke Work) / Ees (End-systolic Elastance) / dP/dt max (peak rate of the pressure rise) / dP/dt max_EDV / dP/dt min / TAU (relaxation time constant calculated by Weiss method) / SV (Stroke Volume) / CO (Cardiac Output) / SW (Stroke Work) / EF / Ea/Ees / Ea (arterial Elastance): ↓: downward arrow denotes lower than JI-38; ↑: upward arrow denotes greater than JI-38; =denotes same as JI-38; ⬇⬇: double arrow denotes greater effect; ⬆⬆: double arrow denotes greater effect; details: rat MI model, s.c. twice daily; pressure-volume loops; expressed in comparison to JI-38
Method: Rats were anesthetized by intramuscular injection of a mixture of ketamine (100 mg/kg), xylazine (20 mg/kg) and acepromazine (10 mg/kg). A 2-F micromanometer tipped catheter (SPR-838, Millar Instruments, Houston, Tex.) was inserted into the right carotid artery and advanced retrograde into the left ventricle. Measurements were calibrated by injecting a hypertonic saline (15%) bolus to determine extra-ventricular conductance; relative volume units were converted to actual volume using the cuvette calibration method. All analyses were performed using PVAN 3.0 software (Millar Instruments, Houston, Tex.).
(§1) Myocardial infarction (MI) was induced by permanent ligation of the left coronary artery in female 6-month-old Fisher-344 rats. Following experimental myocardial infarction (MI), rats were randomly assigned to receive either placebo, JI-38, or one of the following new analogs of GHRH: MR-30 l(P-21301), MR-303(P-21303), MR-356(P-20356), MR-502(25502), MR-350(P-20350), MR-36 l(P-20361), MR-367(P-20367), MR-403(P-27403), MR-404(P-27404), and MR-409(P-27409) (10 rats per each group). The GHRH peptide agonists were adminsistered starting 2 hours post-surgery, 1 week, 2 week, and 4 week intervals. All treatment was given subcutaneously twice daily. Cardiac performance was assessed by serial echocardiography and hemodynamic analysis derived from pressure-volume loops as described before.
The hemodynamic studies are shown in FIGS. 16-33 and the results are summarized in Table 16 (results were expressed in comparison to JI-38; downward arrow denotes lower than JI-38; upward arrow denotes greater than JI-38; =denotes same as JI-38; and double arrow denotes greater effect).

[4] = test system: myocardial infarction (Fisher-344 rats); test: Serial echocardiography after MI, compared to JI-38 (Example 15, Table 15); assay type: in vivo, rat; design: key to LVEDD: Left Ventricular End Diastolic Diameter / LVESD: Left Ventricular End Systolic Diameter / VD: Ventricular Diastole / VS: Ventricular Systole / EF: Ejection Fraction / FS: Fraction Shortening: ↓: downward arrow denotes lower than JI-38; ↑: upward arrow denotes greater than JI-38; =denotes same as JI-38; ⬇⬇: double arrow denotes greater effect; ⬆⬆: double arrow denotes greater effect; details: in comparison to JI-38
Method: Echocardiographic measurements were obtained at baseline, 2 days, 1, 2 and 4 weeks. Echocardiographic assessments were performed in anesthetized rats (2% isoflurane inhalation) using a Vevo-770 echocardiogram (Visual Sonics Inc., Toronto, Ontario, Canada) equipped with a 17.5-MHz transducer. Cardiac dimensions: LV end diastolic (LVEDD), end systolic (LVESD) diameters and fractional shortening (FS) were recorded from M-mode images using averaged measurements from 3 to 5 consecutive cardiac cycles according to the American Society of Echocardiography. Ejection fraction (EF) was calculated from bi-dimensional long-axis parasternal views taken through the infarcted area. All images were analyzed using Vevo 770 3.0.0 software (Visual Sonics Inc., Toronto, Ontario, Canada).
as §1
The echocardiographic experiments are shown in FIGS. 10-15 and the results are summarized in Table 15 (results were expressed in comparison to JI-38; downward arrow denotes lower than JI-38; upward arrow denotes greater than JI-38; =denotes same as JI-38; and double arrow denotes greater effect).

## CCCC[C@H](NC(=O)[C@@H](NC(=O)[C@H](CC(=O)O)NC(=O)[C@H](CCC(N)=O)NC(=O)[C@H](CC(C)C)NC(=O)[C@H](CC(C)C)NC(=O)[C@H](CCCN)NC(=O)[C@H](CCCNC(=N)N)NC(=O)[C@H](C)NC(=O)[C@H](CO)NC(=O)[C@H](CC(C)C)NC(=O)[C@H](CCC(N)=O)NC(=O)[C@H](CC)NC(=O)[C@H](CC(C)C)NC(=O)[C@@H](NC(=O)[C@H](CCCN)NC(=O)[C@H](CCCNC(=N)N)NC(=O)[C@H](Cc1ccc(O)cc1)NC(=O)[C@H](CO)NC(=O)[C@H](CCC(N)=O)NC(=O)[C@@H](NC(=O)[C@H](Cc1ccccc1)NC(=O)[C@@H](NC(=O)[C@H](C)NC(=O)[C@H](CC(=O)O)NC(=O)[C@@H](C)NC(=O)CCc1ccc(O)cc1)[C@@H](C)CC)[C@@H](C)O)C(C)C)[C@@H](C)CC)C(=O)N[C@@H](CC(=O)O)C(=O)NCCCCNC(=N)N [Peptide P-20350, [Dat^1, D-Ala^2, Gln^8, Orn^12, Abu^15, Orn^21, Nle^27, Asp^28, Agm^29]hGHRH(1-29) NH2] (Desaminotyrosyl-[dA]DAIFTQSYR[Orn]VL[Abu]QLSAR[Orn]LLQDI[Nle]D-Agmatine)
GH release; s.c.
  Stimulation of growth hormone levels after subcutaneous administration (in words): stimulated greater growth hormone levels than hGHRH or JI-38
GH release; 15 min after
  GH releasing potency relative to JI-38 (=1): 1.53
GH release; 30 min after
  GH releasing potency relative to JI-38 (=1): 1.17
GHRH receptor [1]; 125I-JV-1-42, human pituitary membranes, Table 7
  IC50: 0.52 nM
GHRH receptor [1]; JI-38 = 1, Table 7
  Relative affinity (Binding potency) vs JI-38: 8.37
GHRH receptor [2]; 125I-JV-1-42, human pituitary membranes, Table 5
  IC50: 0.04 nM
GHRH receptor [2]; GHRH(1-29) = 1, Table 5
  Relative affinity (Binding potency) vs GHRH: 101.5
GHRH receptor [2]; JI-38 = 1, Table 5
  Relative affinity (Binding potency) vs JI-38: 42.7
[3]
  CO (Cardiac Output): ↑
  EDP (End-Diastolic Pressure): ↑
  EF: ↑
  ESP (End-Systolic Pressure): ↑
  ESV (End-Systolic Volume): =
  Ea (arterial Elastance): =
  Ea/Ees: =
  Ees (End-systolic Elastance): =
  PRSW (Preload Recruitable Stroke Work): =
  SV (Stroke Volume): =
  SW (Stroke Work): ↓
  TAU (relaxation time constant calculated by Weiss method): =
  dP/dt max (peak rate of the pressure rise): =
  dP/dt max_EDV: =
  dP/dt min: =
[4]
  EF: Ejection Fraction: =
  FS: Fraction Shortening: =
  LVEDD: Left Ventricular End Diastolic Diameter: ↓
  LVESD: Left Ventricular End Systolic Diameter: =
  VD: Ventricular Diastole: =
  VS: Ventricular Systole: =
